Columns and labels:
[1] = test system: healthy women in their 20's to 30's; settings: 17 subjects, before vs after suctioning, Table 1 and FIG. 1
Procedure: (§1) In the verification test using this method, hydrogen mainly produced by the hydrogen generating device (an electrolytic hydrogen gas suction tool 100 which will be described later) is orally suctioned. More specifically, hydrogen generated by the hydrogen generatingor device 100 is suctioned by spontaneous breathing for approximately 10 minutes. The amount of hydrogen generated per minute is 8 cc per minute by electrolysis (4 cc of oxygen is also generated at the same time) and thus, 12 cc per minute of a gas mixture of oxygen/hydrogen is generated. This gas mixture is suctioned by spontaneous breathing. Normally, since an adult suctions approximately 5 litters of air per minute under spontaneous breathing, assuming that all the generated gas mixture is suctioned, the gas mixture at 0.24% at the maximum (hydrogen 0.18%, oxygen 0.06%) is contained in an expiratory air.
The subjects were 20 selected subjects, grouped into two groups, considering the ages and test time slots (morning and afternoon), and measurement was conducted for 10 subjects a day. […]

[2] = test system: healthy women in their 20's to 30's; settings: 17 subjects, evaluation in score
Procedure: as §1, with “air. […]” for “air.”
(§2) For an action of the central nervous activity by hydrogen, a brain stress test utilized for the purpose of evaluating an activity degree and a stress degree of the brain is conducted, and the brain activity degree (degree of fatigue) is measured by a flicker device. Moreover, influences of a sight function, a skin sensibility function, a gravity balance function and the like are measured by a brain executive function meter. […]

[3] = test system: healthy women in their 20's to 30's; settings: 17 subjects, subjective five-grade evaluation, FIG. 6
Procedure: as §1
The subjects were 20 selected subjects, grouped into two groups, considering the ages and test time slots (morning and afternoon), and measurement was conducted for 10 subjects a day.
The testing method is as follows: • (1) In the main test, each subject should suction hydrogen. • (2) Tests/evaluations which will be described later shall be conducted for each subject while each subject is suctioning hydrogen, and by comparing/examining each evaluation before and after the suctioning, physiological effects by hydrogen is verified. • (3) For the subject who is sitting on a chair for measurement with his/her eyes open, a test manager or a test cooperator prepares a hydrogen generating tool (not generating hydrogen) which is a control and assigns it to the subject. The subject shall put his/her mouth to a nozzle 5 of an electrolytic hydrogen gas suction tool 100 which is this hydrogen generating device (see FIGS. 7 to 10) or a tube portion connected to that and normally breath for approximately 10 minutes. After that, each measurement which will be described later is conducted at any time. After that, the subject puts his/her mouth to the nozzle 5 of the electrolytic hydrogen gas suction tool 100 which generates hydrogen or the tube portion connected to that as a subject sample and suctions hydrogen for 10 minutes similarly. After that, each measurement is made. If abnormality is found in the subject while the subject is suctioning hydrogen, the test manager or the test cooperator shall immediately stop the suctioning. When the suctioning of hydrogen is stopped, the practitioner shall record the fact of the stop and suctioning time in a clinical report. • (4) The test manager shall check if a harmful phenomenon has occurred in the subject during the test or not.
For an action of the central nervous activity by hydrogen, a brain stress test utilized for the purpose of evaluating an activity degree and a stress degree of the brain is conducted, and the brain activity degree (degree of fatigue) is measured by a flicker device. Moreover, influences of a sight function, a skin sensibility function, a gravity balance function and the like are measured by a brain executive function meter. For a change in emotional feelings, an ability of concentration, sleepiness and the like are examined by interview by using a multilateral emotional state scale. The respective measurements will be described in brief below.

[4] = test system: healthy women in their 20's to 30's; settings: 17 subjects, Table 4 and FIG. 5
Procedure: as §1, with “Normally, since an adult suctions approximately 5 litters of air per minute under spontaneous breathing, assuming that all the generated gas mixture is suctioned, the gas mixture at 0.24% at the maximum (hydrogen 0.18%, oxygen 0.06%) is contained in an expiratory air.” left out
as §2
Actions to the brain executive functions (right-and-left cognitive function, sight function, short-time memory, skin sensibility, gravity balance and the like are comprehensively analyzed) are analyzed (measurement instrument: Brain executive function meter by Anima).

[5] = test system: healthy women in their 20's to 30's; settings: 17 subjects, before vs after suctioning, Table 2 and FIG. 2
Procedure: as §1, with “Normally, since an adult suctions approximately 5 litters of air per minute under spontaneous breathing, assuming that all the generated gas mixture is suctioned, the gas mixture at 0.24% at the maximum (hydrogen 0.18%, oxygen 0.06%) is contained in an expiratory air.” left out
By paying attention to a physiological reaction that a skin temperature of a distal end section (the forehead center part and a first knuckle-joint cushion side part of the index finger are measured this time) is changed in accordance with predominance of the sympathetic nervous activity, the change in the skin temperature is measured by a temperature sensor over time before and after drinking of the hydrogen solution. The temperature sensor body has an approximate size of a thickness of 1 mm and a diameter of 3 mm, and the change in the skin temperature is measured by a recorder in a wired manner from the sensor.

[HH] [hydrogen]
pupil contraction rate (CR value), change by hydrogen suctioning [1]: significantly increased
brain stress, change by hydrogen suctioning ([2]; Table 3 and FIG. 3): significantly decreased
brain rotation degree score, change by hydrogen suctioning ([2]; Table 3 and FIG. 4): significantly raised
fatigue feeling, change by hydrogen suctioning [3]: decreased
feeling of concentration, change by hydrogen suctioning [3]: significantly raised
feeling of exhilarating, change by hydrogen suctioning [3]: significantly raised
feeling of refreshing, change by hydrogen suctioning [3]: significantly raised
spontaneous stress, change by hydrogen suctioning [3]: decreased
right-and-left cognitive function, change by hydrogen suctioning [4]: remarkable improvement
short-term memory, change by hydrogen suctioning [4]: remarkable improvement
peripheral skin temperature, change by hydrogen suctioning [5]: significantly raised
